Source: publication PMC10163259, “KK-LC-1 as a therapeutic target to eliminate ALDH^+ stem cells in triple negative breast cancer” (Nature Communications, 2023)

Target: T1, KK-LC-1 (Homo sapiens, UniProt Q5H943)
T1 construct: gene CT83; purified KK-LC-1 protein, biotinylated, immobilised on Super Streptavidin sensors
T1 sequence (Q5H943 1-113): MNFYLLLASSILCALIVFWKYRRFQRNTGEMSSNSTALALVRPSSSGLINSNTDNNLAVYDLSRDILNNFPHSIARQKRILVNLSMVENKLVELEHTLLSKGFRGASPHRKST
Assay: biolayer interferometry (Octet K2)
Type: binding
Details: 30 °C; PBS with 0.1% BSA, 0.01% Tween-20, 1% DMSO; biotinylated KK-LC-1 immobilised; from kon/koff

Cc1ccc(CNC(=O)c2nnc(CN(C)C3CCc4ccccc43)s2)cc1 (stereo not shown) [Z8, Z839878730]
Kd: 4.3 µM
